In ChEMBL document CHEMBL1201862, “PubChem BioAssay data set” (2004):
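These data come from cells grown in 96-well plates and exposed to compound for 48 hours at five concentrations. GI50 = concentration required for 50% inhibition of growth.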 Activity calls are given as the source filed them. Rule as the data show it: active = GI50 up to about 1.1 µM and inactive = higher.

Experiments:
Experiment in all cases: NCI-60 cell line screen, 48 h
BT-549 = tested on: BT-549
A549 = tested on: A549
IGROV-1 = tested on: IGROV-1
UO-31 = tested on: UO-31
T47D = tested on: T47D
HCT-15 = tested on: HCT-15
786-0 = tested on: 786-0
MDA-MB-435 = tested on: MDA-MB-435
U-251 = tested on: U-251
NCI-H460 = tested on: NCI-H460
SK-OV-3 = tested on: SK-OV-3
OVCAR-5 = tested on: OVCAR-5
SK-MEL-28 = tested on: SK-MEL-28
PC-3 = tested on: PC-3
OVCAR-3 = tested on: OVCAR-3
HCC 2998 = tested on: HCC 2998
SW-620 = tested on: SW-620
SNB-75 = tested on: SNB-75
EKVX = tested on: EKVX
UACC-257 = tested on: UACC-257
SF-268 = tested on: SF-268
SK-MEL-5 = tested on: SK-MEL-5
RXF 393 = tested on: RXF 393
OVCAR-8 = tested on: OVCAR-8
UACC-62 = tested on: UACC-62
MDA-N = tested on: MDA-N
M14 = tested on: M14
A498 = tested on: A498
RPMI-8226 = tested on: RPMI-8226
SF-295 = tested on: SF-295
HL-60 = tested on: HL-60
LOX IMVI = tested on: LOX IMVI
NCI/ADR-RES = tested on: NCI/ADR-RES
SR = tested on: SR
MDA-MB-231 = tested on: MDA-MB-231
SN12C = tested on: SN12C
SF-539 = tested on: SF-539
HOP-92 = tested on: HOP-92
DU-145 = tested on: DU-145
KM12 = tested on: KM12
NCI-H226 = tested on: NCI-H226
TK-10 = tested on: TK-10
COLO 205 = tested on: COLO 205
HT-29 = tested on: HT-29
OVCAR-4 = tested on: OVCAR-4
SNB-19 = tested on: SNB-19
ACHN = tested on: ACHN
NCI-H522 = tested on: NCI-H522
Malme-3M = tested on: Malme-3M
HOP-62 = tested on: HOP-62
NCI-H23 = tested on: NCI-H23
MCF7 = tested on: MCF7
K562 = tested on: K562
MOLT-4 = tested on: MOLT-4
CCRF-CEM = tested on: CCRF-CEM
SK-MEL-2 = tested on: SK-MEL-2
HCT-116 = tested on: HCT-116
CAKI-1 = tested on: CAKI-1
Hs-578T = tested on: Hs-578T

Measured: GI50

COC(=O)C1C(O)CCC2CN3CCc4c([nH]c5ccccc45)C3CC21 (stereo unspecified)
> 100 µM: HCT-15
inactive: BT-549 > 100 µM | A549 > 100 µM | IGROV-1 > 100 µM | UO-31 > 100 µM | T47D > 100 µM | 786-0 > 100 µM | MDA-MB-435 > 100 µM | U-251 > 100 µM | NCI-H460 > 100 µM | SK-OV-3 > 100 µM | OVCAR-5 > 100 µM | SK-MEL-28 76 µM | PC-3 > 100 µM | OVCAR-3 > 100 µM | HCC 2998 59.4 µM | SW-620 > 100 µM | SNB-75 > 100 µM | EKVX > 100 µM | UACC-257 > 100 µM | SF-268 > 100 µM

CC1=NC(C)(C)N(O)C1(C)C
> 100 µM: HCT-15
inactive: SK-MEL-5 > 100 µM | A549 > 100 µM | RXF 393 > 100 µM | OVCAR-8 > 100 µM | IGROV-1 > 100 µM | UACC-62 > 100 µM | UO-31 > 100 µM | T47D > 100 µM | MDA-N > 100 µM | M14 > 100 µM | 786-0 > 100 µM | A498 > 100 µM | RPMI-8226 > 100 µM | SF-295 > 100 µM | HL-60 > 100 µM | MDA-MB-435 > 100 µM | U-251 > 100 µM | LOX IMVI > 100 µM | NCI-H460 > 100 µM | NCI/ADR-RES > 100 µM | SR > 100 µM | MDA-MB-231 > 100 µM | SN12C > 100 µM | SK-OV-3 > 100 µM | OVCAR-5 > 100 µM | SF-539 > 100 µM | HOP-92 > 100 µM | DU-145 > 100 µM | SK-MEL-28 > 100 µM | KM12 > 100 µM | NCI-H226 > 100 µM | TK-10 > 100 µM | COLO 205 > 100 µM | HT-29 > 100 µM | OVCAR-4 > 100 µM | PC-3 > 100 µM | SNB-19 > 100 µM | ACHN > 100 µM | NCI-H522 > 100 µM | Malme-3M > 100 µM | HOP-62 > 100 µM | NCI-H23 > 100 µM | MCF7 > 100 µM | OVCAR-3 > 100 µM | K562 > 100 µM | MOLT-4 > 100 µM | HCC 2998 > 100 µM | SW-620 > 100 µM | SNB-75 > 100 µM | CCRF-CEM > 100 µM | EKVX > 100 µM | SK-MEL-2 > 100 µM | SF-268 > 100 µM | HCT-116 > 100 µM

COc1ccc2c(c1)-c1oc3ccccc3c(=O)c1CO2
24.9 µM: HCT-15
inactive: BT-549 37.3 µM | SK-MEL-5 17.4 µM | A549 43 µM | OVCAR-8 39.1 µM | IGROV-1 25.7 µM | UACC-62 38.1 µM | UO-31 22.9 µM | T47D 29.9 µM | MDA-N 23.4 µM | M14 57.7 µM | 786-0 31.7 µM | RPMI-8226 20.8 µM | SF-295 69 µM | MDA-MB-435 25.6 µM | U-251 28.7 µM | LOX IMVI 21.6 µM | NCI/ADR-RES 29.4 µM | MDA-MB-231 36.3 µM | SN12C 32.7 µM | SK-OV-3 35.4 µM | OVCAR-5 > 100 µM | CAKI-1 20.8 µM | SF-539 35.5 µM | DU-145 40.1 µM | KM12 39.5 µM | NCI-H226 50.4 µM | TK-10 45.2 µM | COLO 205 31.4 µM | HT-29 31.1 µM | PC-3 31.9 µM | ACHN 28.1 µM | NCI-H522 32.1 µM | Malme-3M 55.8 µM | HOP-62 57.4 µM | NCI-H23 89.5 µM | MCF7 36.9 µM | OVCAR-3 31.3 µM | K562 65 µM | MOLT-4 28.1 µM | HCC 2998 46.5 µM | SW-620 28.2 µM | SNB-75 31.6 µM | CCRF-CEM 20.5 µM | EKVX 25 µM | SK-MEL-2 26.3 µM | UACC-257 31.8 µM | SF-268 25 µM | HCT-116 28.8 µM

COc1ccc(P2(=S)OC(C)(C)C(C)(C)O2)cc1
> 100 µM: HCT-15
inactive: SK-MEL-5 > 100 µM | A549 > 100 µM | OVCAR-8 > 100 µM | IGROV-1 > 100 µM | UACC-62 > 100 µM | UO-31 17.5 µM | T47D 6.93 µM | MDA-N > 100 µM | M14 > 100 µM | 786-0 > 100 µM | SF-295 > 100 µM | HL-60 > 100 µM | MDA-MB-435 > 100 µM | U-251 > 100 µM | LOX IMVI > 100 µM | NCI-H460 > 100 µM | NCI/ADR-RES > 100 µM | SR > 100 µM | MDA-MB-231 > 100 µM | SN12C > 100 µM | OVCAR-5 > 100 µM | CAKI-1 50.9 µM | SF-539 > 100 µM | HOP-92 > 100 µM | DU-145 > 100 µM | SK-MEL-28 > 100 µM | KM12 > 100 µM | NCI-H226 > 100 µM | TK-10 > 100 µM | HT-29 > 100 µM | OVCAR-4 > 100 µM | PC-3 > 100 µM | SNB-19 > 100 µM | ACHN > 100 µM | NCI-H522 > 100 µM | Malme-3M > 100 µM | HOP-62 > 100 µM | NCI-H23 > 100 µM | MCF7 > 100 µM | OVCAR-3 > 100 µM | K562 > 100 µM | MOLT-4 > 100 µM | SW-620 > 100 µM | SNB-75 > 100 µM | CCRF-CEM > 100 µM | EKVX > 100 µM | SK-MEL-2 > 100 µM | UACC-257 > 100 µM | Hs-578T > 100 µM | HCT-116 > 100 µM

Clc1ccc(/N=C/c2cc3cc(Br)ccc3nc2Cl)cc1
14.2 µM: HCT-15
inactive: BT-549 > 50 µM | SK-MEL-5 6.59 µM | RXF 393 > 50 µM | OVCAR-8 28.1 µM | IGROV-1 17.8 µM | UO-31 36.8 µM | T47D > 50 µM | MDA-N 11.2 µM | M14 14.4 µM | 786-0 > 50 µM | RPMI-8226 13.2 µM | HL-60 9.82 µM | MDA-MB-435 8.71 µM | LOX IMVI 6.18 µM | NCI-H460 18.1 µM | NCI/ADR-RES 45.1 µM | SR 10.1 µM | SN12C > 50 µM | OVCAR-5 > 50 µM | CAKI-1 1.95 µM | SF-539 21.4 µM | HOP-92 > 50 µM | DU-145 > 50 µM | SK-MEL-28 46.5 µM | KM12 20 µM | NCI-H226 > 50 µM | COLO 205 > 50 µM | HT-29 16 µM | OVCAR-4 5.12 µM | PC-3 15.7 µM | NCI-H522 15.1 µM | Malme-3M > 50 µM | NCI-H23 > 50 µM | K562 4.34 µM | MOLT-4 13.5 µM | HCC 2998 32.3 µM | SW-620 14.2 µM | SNB-75 > 50 µM | CCRF-CEM 9.08 µM | EKVX 29.6 µM | SK-MEL-2 10.8 µM | UACC-257 34.1 µM | SF-268 17 µM | HCT-116 12 µM

Cc1ccc(O)c(C(c2ccc([N+](=O)[O-])cc2)c2cc(C)ccc2O)c1
8.18 µM: HCT-15
inactive: SK-MEL-5 5.75 µM | A549 9.66 µM | RXF 393 8.09 µM | OVCAR-8 11.7 µM | IGROV-1 11 µM | UACC-62 7.4 µM | UO-31 3.27 µM | T47D 11.2 µM | M14 11.7 µM | 786-0 21.2 µM | A498 18.4 µM | RPMI-8226 10.1 µM | SF-295 14.5 µM | HL-60 1.47 µM | MDA-MB-435 10.9 µM | U-251 16.8 µM | LOX IMVI 22.7 µM | NCI/ADR-RES 10.7 µM | SR 3.98 µM | MDA-MB-231 12 µM | SN12C 13.7 µM | SK-OV-3 15.1 µM | OVCAR-5 14.6 µM | CAKI-1 15.1 µM | SF-539 15.3 µM | HOP-92 11.1 µM | DU-145 12.1 µM | SK-MEL-28 16.6 µM | KM12 7.35 µM | NCI-H226 15.9 µM | TK-10 16.3 µM | COLO 205 20.7 µM | HT-29 12.2 µM | OVCAR-4 10.5 µM | PC-3 3.59 µM | SNB-19 13.1 µM | ACHN 6.1 µM | NCI-H522 12.3 µM | HOP-62 10.8 µM | NCI-H23 7.93 µM | MCF7 4.98 µM | OVCAR-3 6.32 µM | K562 12.2 µM | MOLT-4 5.12 µM | HCC 2998 2.99 µM | SW-620 13.5 µM | SNB-75 2.18 µM | CCRF-CEM 10.8 µM | EKVX 14.3 µM | SK-MEL-2 11.5 µM | UACC-257 14.6 µM | Hs-578T 7.69 µM | SF-268 5.57 µM | HCT-116 14.4 µM
